Results reported in patent US20240158418A1 (C4 Therapeutics, Inc., priority 2021, published 2024).

biological target: T1, EGFR L858R-T790M (Homo sapiens, UniProt P00533, L858R/T790M); experiment: EGFR degradation, Total EGFR (L858R-specific) HTRF, NCI-H1975; assay type: cell-based; settings: Table 9A; NCI-H1975 cells, 6 hours, Total EGFR HTRF; read-out: H1975 EGFR DC50
T1 construct: NCI-H1975 (harboring EGFR heterozygous L858R-T790M mutations); host or cells: NCI-H1975
Excerpt: NCI-H1975 (harboring EGFR heterozygous L858R-T790M mutations) and NCI-H3255 (harboring EGFR heterozygous L858R mutation) were purchased from ATCC and NCI, respectively. NCI-H1975+CS (harboring EGFR heterozygous L858R-T790M-C797S mutations) was generated using CRISPR technology to introduce the additional C797S mutation by Horizon Discovery. A431 (harboring EGFR wildtype) was purchased from ATCC. RPMI 1640 no-phenol red medium and fetal bovine serum (FBS) were purchased from Gibco (Grand Island, NY, USA). Cell culture flasks and 384-well microplates were acquired from VWR (Radnor, PA, USA). Phosphorylated (pY1068) EGFR and Total EGFR (using L858R-specific detection antibody and pan-EGFR antibody for EGFR mutant cell lines and EGFR wild-type cell lines, respectively) HTRF assay kits were purchased from Cisbio (Bedford, MA, USA).
Degradation of EGFR protein containing L858R mutation or wild-type was determined based on quantification of FRET signal using a Total EGFR (L858R-specific or pan-EGFR detecting) HTRF assay kit. Phospho-EGFR (pEGFR) inhibition was determined based on quantification of FRET signal using a pY1068 EGFR HTRF assay kit. In separate assay plates, test compounds were added to the 384-well plate from a top concentration of 10 μM with 11 points, half log titration in duplicates. For each assay, 12.5 uL of cells suspended in assay media (RPMI 1640 no-phenol red medium+10% FBS) at cell densities indicated for each cell line in Table 8 below were dispensed using a multi-channel pipette to 384-well low volume white HTRF microplates containing a duplicate concentration range of test compounds and DMSO controls. The plates were kept at 37° C. with 5% CO2 for 6 hours and then incubated with either phospho EGFR or Total EGFR HTRF detection antibodies according to the cell line and EGFR mutant being assayed. Cells treated in the absence of the test compound were the negative control. Positive control was set by wells containing all reagents but no cells. FRET signal was acquired on EnVision™ Multilabel Reader (PerkinElmer, Santa Clara, CA, USA). Compound concentration that achieves 50% degradation and inhibition was reported as DC50 and IC50, respectively.

T1 sequence (P00533 25-1210 T790M/L858R): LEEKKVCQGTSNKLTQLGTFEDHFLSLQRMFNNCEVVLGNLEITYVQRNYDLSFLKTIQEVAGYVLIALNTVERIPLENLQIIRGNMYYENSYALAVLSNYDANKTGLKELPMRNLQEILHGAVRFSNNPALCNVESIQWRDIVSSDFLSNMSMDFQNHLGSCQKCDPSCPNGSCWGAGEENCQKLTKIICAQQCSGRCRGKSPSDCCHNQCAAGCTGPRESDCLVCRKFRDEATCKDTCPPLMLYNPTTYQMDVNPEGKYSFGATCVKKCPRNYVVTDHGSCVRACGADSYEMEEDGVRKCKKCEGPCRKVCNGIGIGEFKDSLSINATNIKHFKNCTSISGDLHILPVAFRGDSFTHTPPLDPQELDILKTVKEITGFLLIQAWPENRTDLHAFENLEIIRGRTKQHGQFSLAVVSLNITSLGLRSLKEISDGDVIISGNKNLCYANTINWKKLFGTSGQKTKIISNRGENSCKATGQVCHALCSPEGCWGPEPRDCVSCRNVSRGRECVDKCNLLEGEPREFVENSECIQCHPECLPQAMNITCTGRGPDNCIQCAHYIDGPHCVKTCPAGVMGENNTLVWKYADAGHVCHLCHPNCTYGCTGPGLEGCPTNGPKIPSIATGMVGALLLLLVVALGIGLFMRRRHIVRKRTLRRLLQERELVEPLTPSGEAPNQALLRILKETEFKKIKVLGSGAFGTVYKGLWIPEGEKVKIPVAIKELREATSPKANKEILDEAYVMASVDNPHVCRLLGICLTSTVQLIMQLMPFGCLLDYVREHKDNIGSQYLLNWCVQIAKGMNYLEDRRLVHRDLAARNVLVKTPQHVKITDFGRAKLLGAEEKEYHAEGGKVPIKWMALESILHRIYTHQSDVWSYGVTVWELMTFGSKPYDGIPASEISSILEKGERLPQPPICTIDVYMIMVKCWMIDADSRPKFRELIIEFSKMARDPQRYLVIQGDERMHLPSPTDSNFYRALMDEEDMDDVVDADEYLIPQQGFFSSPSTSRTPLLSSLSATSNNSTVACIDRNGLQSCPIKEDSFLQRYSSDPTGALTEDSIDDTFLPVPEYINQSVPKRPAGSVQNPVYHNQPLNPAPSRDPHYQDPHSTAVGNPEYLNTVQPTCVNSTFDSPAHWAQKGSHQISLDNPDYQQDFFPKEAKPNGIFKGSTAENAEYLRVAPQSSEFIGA

DC50 [nM]	SMILES
< 50	O=C1CC[C@H](Nc2ccc(C3CCN(CC(=O)N4CC[C@@H](Oc5ccc(-c6cc(F)c7c(c6)C(=O)N(C(C(=O)Nc6nccs6)c6ncn8c6CCC8)C7)cc5)C4)CC3)cc2)C(=O)N1 (stereo partly drawn) [Compound 41, 2-(6,7-dihydro-5H-pyrrolo[1,2-c]imidazol-1-yl)-2-[6-[4-[(3R)-1-[2-[4-[4-[[(3S)-2,6-dioxo-3-piperidyl]amino]phenyl]-1-piperidyl]acetyl]pyrrolidin-3-yl]oxyphenyl]-4-fluoro-1-oxo-isoindolin-2-yl]-N-thiazol-2-yl-acetamide]
< 50	O=C1CC[C@@H](Nc2ccc(C3CCN(CC(=O)N4CCC(c5ccc(-c6cc(F)c7c(c6)C(=O)N(C(C(=O)Nc6nccs6)c6ncn8c6CCC8)C7)cc5)CC4)CC3)cc2)C(=O)N1 (stereo partly drawn) [Compound 23, 2-(6,7-dihydro-5H-pyrrolo[1,2-c]imidazol-1-yl)-2-(6-(4-(1-(2-(4-(4-(((R)-2,6-dioxopiperidin-3-yl)amino)phenyl)piperidin-1-yl)acetyl)piperidin-4-yl)phenyl)-4-fluoro-1-oxoisoindolin-2-yl)-N-(thiazol-2-yl)acetamide]
< 50	O=C1CC[C@H](Nc2ccc(C3CCN(CC(=O)N4CC[C@H](Oc5ccc(-c6cc(F)c7c(c6)C(=O)N(C(C(=O)Nc6nccs6)c6ncn8c6CCC8)C7)cc5)C4)CC3)cc2)C(=O)N1 (stereo partly drawn) [Compound 42, 2-(6,7-dihydro-5H-pyrrolo[1,2-c]imidazol-1-yl)-2-[6-[4-[(3S)-1-[2-[4-[4-[[(3S)-2,6-dioxo-3-piperidyl]amino]phenyl]-1-piperidyl]acetyl]pyrrolidin-3-yl]oxyphenyl]-4-fluoro-1-oxo-isoindolin-2-yl]-N-thiazol-2-yl-acetamide]
50 to 150	O=C1CCC(Nc2ccc(C3CCN(CC(=O)N4CCN(c5ccc(-c6cc(Cl)c7cn(C(C(=O)Nc8nccs8)c8ncn9c8CCC9)nc7c6Cl)cc5)CC4)CC3)cc2)C(=O)N1 (racemic) [Compound 61, (2RS)-2-[4,7-Dichloro-6-[4-[4-[2-[4-[4-[[(3RS)-2,6-dioxo-3-piperidyl]amino]phenyl]-1-piperidyl]acetyl]piperazin-1-yl]phenyl]indazol-2-yl]-2-(6,7-dihydro-5H-pyrrolo[1,2-c]imidazol-1-yl)-N-thiazol-2-yl-acetamide]

same assay, conditions: Table 9B; NCI-H1975 cells, 6 hours, Total EGFR HTRF; read-out: H1975 EGFR DC50

DC50 [nM]	SMILES
< 50	O=C1CCC(Nc2ccc(N3CCC(O)(CC(=O)N4CCC5(CC4)CN(c4ccc(-c6cc(F)c7c(c6)C(=O)N(C(C(=O)Nc6nccs6)c6ncn8c6CCC8)C7)cc4)C5)CC3)c(F)c2)C(=O)N1 (centres unmarked) [Compound 114, 2-(6,7-dihydro-5H-pyrrolo[1,2-c]imidazol-1-yl)-2-[6-[4-[7-[2-[1-[4-[(2,6-dioxo-3-piperidyl)amino]-2-fluoro-phenyl]-4-hydroxy-4-piperidyl]acetyl]-2,7-diazaspiro[3.5]nonan-2-yl]phenyl]-4-fluoro-1-oxo-isoindolin-2-yl]-N-thiazol-2-yl-acetamide]
< 50	O=C1CCC(Nc2cc(F)c(N3CCC(O)(CC(=O)N4CC5(CCN(c6ccc(-c7cc(F)c8c(c7)C(=O)N(C(C(=O)Nc7nccs7)c7ncn9c7CCC9)C8)cc6)CC5)C4)CC3)c(F)c2)C(=O)N1 (single isomer, unassigned; isomer 1) [Compound 134, 2-(6,7-dihydro-5H-pyrrolo[1,2-c]imidazol-1-yl)-2-[6-[4-[2-[2-[1-[4-[[2,6-dioxo-3-piperidyl]amino]-2,6-difluoro-phenyl]-4-hydroxy-4-piperidyl]acetyl]-2,7-diazaspiro[3.5]nonan-7-yl]phenyl]-4-fluoro-1-oxo-isoindolin-2-yl]-N-thiazol-2-yl-acetamide, isomer 1]
< 50	O=C1CCC(Nc2ccc(N3CCC(O)(CC(=O)N4CCC5(CC4)CN(c4ccc(-c6cc(F)c7c(c6)C(=O)N(C(C(=O)Nc6nccs6)c6ncn8c6CCC8)C7)cc4)C5)CC3)c(Cl)c2)C(=O)N1 (single isomer, unassigned; isomer 1) [Compound 138, 2-[6-[4-[7-[2-[1-[2-chloro-4-[[2,6-dioxo-3-piperidyl]amino]phenyl]-4-hydroxy-4-piperidyl]acetyl]-2,7-diazaspiro[3.5]nonan-2-yl]phenyl]-4-fluoro-1-oxo-isoindolin-2-yl]-2-(6,7-dihydro-5H-pyrrolo[1,2-c]imidazol-1-yl)-N-thiazol-2-yl-acetamide, isomer 1]
< 50	O=C1CCN(c2ccc(N3CCC(O)(CC(=O)N4CC5(CCN(c6ccc(-c7cc(F)c8c(c7)C(=O)N(C(C(=O)Nc7nccs7)c7ncn9c7CCC9)C8)cc6)CC5)C4)CC3)c(Cl)c2)C(=O)N1 (centres unmarked) [Compound 172, 2-[6-[4-[2-[2-[1-[2-chloro-4-(2,4-dioxohexahydropyrimidin-1-yl)phenyl]-4-hydroxy-4-piperidyl]acetyl]-2,7-diazaspiro[3.5]nonan-7-yl]phenyl]-4-fluoro-1-oxo-isoindolin-2-yl]-2-(6,7-dihydro-5H-pyrrolo[1,2-c]imidazol-1-yl)-N-thiazol-2-yl-acetamide]
< 50	O=C1CCC(Nc2ccc(N3CCC(O)(CC(=O)N4CC5(C4)CN(c4ccc(-c6cc(F)c7c(c6)C(=O)N(C(C(=O)Nc6nccs6)c6ncn8c6CCC8)C7)cc4)C5)CC3)c(Cl)c2)C(=O)N1 (centres unmarked) [Compound 117, 2-[6-[4-[2-[2-[1-[2-chloro-4-[(2,6-dioxo-3-piperidyl)amino]phenyl]-4-hydroxy-4-piperidyl]acetyl]-2,6-diazaspiro[3.3]heptan-6-yl]phenyl]-4-fluoro-1-oxo-isoindolin-2-yl]-2-(6,7-dihydro-5H-pyrrolo[1,2-c]imidazol-1-yl)-N-thiazol-2-yl-acetamide]
< 50	O=C1CCC(Nc2ccc(N3CCC(O)(CC(=O)N4CC5(C4)CN(c4ccc(-c6ccc7cn(C(C(=O)Nc8nccs8)c8ncn9c8CCC9)nc7c6F)cn4)C5)CC3)c(F)c2)C(=O)N1 (centres unmarked) [Compound 74, 2-(6,7-dihydro-5H-pyrrolo[1,2-c]imidazol-1-yl)-2-[6-[6-[2-[2-[1-[4-[(2,6-dioxo-3-piperidyl)amino]-2-fluoro-phenyl]-4-hydroxy-4-piperidyl]acetyl]-2,6-diazaspiro[3.3]heptan-6-yl]-3-pyridyl]-7-fluoro-indazol-2-yl]-N-thiazol-2-yl-acetamide]
< 50	NC1(CC(=O)N2CC3(C2)CN(c2ccc(-c4cc(F)c5c(c4)C(=O)N(C(C(=O)Nc4nccs4)c4ncn6c4CCC6)C5)cc2)C3)CCN(c2ccc(NC3CCC(=O)NC3=O)cc2F)CC1 (centres unmarked) [Compound 162, 2-[6-[4-[2-[2-[4-amino-1-[4-[(2,6-dioxo-3-piperidyl)amino]-2-fluoro-phenyl]-4-piperidyl]acetyl]-2,6-diazaspiro[3.3]heptan-6-yl]phenyl]-4-fluoro-1-oxo-isoindolin-2-yl]-2-(6,7-dihydro-5H-pyrrolo[1,2-c]imidazol-1-yl)-N-thiazol-2-yl-acetamide]
> 150	O=C1CCC(c2ccc(N3CCC(O)(CC(=O)N4CC5(C4)CN(c4ccc(-c6cc(F)c7c(c6)C(=O)N(C(C(=O)Nc6nccs6)c6ncn8c6CCC8)C7)cc4)C5)CC3)c(F)c2)C(=O)N1 (centres unmarked) [Compound 157, 2-(6,7-dihydro-5H-pyrrolo[1,2-c]imidazol-1-yl)-2-(6-(4-(6-(2-(1-(4-(2,6-dioxopiperidin-3-yl)-2-fluorophenyl)-4-hydroxypiperidin-4-yl)acetyl)-2,6-diazaspiro[3.3]heptan-2-yl)phenyl)-4-fluoro-1-oxoisoindolin-2-yl)-N-(thiazol-2-yl)acetamide]
< 50	O=C1CC[C@H](Nc2ccc(N3CCC(O)(CC(=O)N4CC5(C4)CN(c4ccc(-c6cc(F)c7c(c6)C(=O)N(C(C(=O)Nc6nccs6)c6ncn8c6C[C@@H](F)C8)C7)cc4)C5)CC3)c(F)c2)C(=O)N1 (stereo partly drawn) [Compound 131, 2-[6-[4-[2-[2-[1-[4-[[(3S)-2,6-dioxo-3-piperidyl]amino]-2-fluoro-phenyl]-4-hydroxy-4-piperidyl]acetyl]-2,6-diazaspiro[3.3]heptan-6-yl]phenyl]-4-fluoro-1-oxo-isoindolin-2-yl]-2-[(6R)-6-fluoro-6,7-dihydro-5H-pyrrolo[1,2-c]imidazol-1-yl]-N-thiazol-2-yl-acetamide]
< 50	O=C1CCC(Nc2cc(F)c(N3CCC(O)(CC(=O)N4CC5(C4)CN(c4ccc(-c6cc(F)c7c(c6)C(=O)N(C(C(=O)Nc6nccs6)c6ncn8c6CCC8)C7)cc4)C5)CC3)cc2F)C(=O)N1 (centres unmarked) [Compound 135, 2-(6,7-dihydro-5H-pyrrolo[1,2-c]imidazol-1-yl)-2-[6-[4-[2-[2-[1-[4-[(2,6-dioxo-3-piperidyl)amino]-2,5-difluoro-phenyl]-4-hydroxy-4-piperidyl]acetyl]-2,6-diazaspiro[3.3]heptan-6-yl]phenyl]-4-fluoro-1-oxo-isoindolin-2-yl]-N-thiazol-2-yl-acetamide]
